In general, IC50 refers to the concentration that inhibits the measured activity by half. The term clearance denotes a measure of how efficiently the substance is removed, as volume per time. A high value points to a high capacity for elimination. As usually defined, the half-life is the time in which the quantity being followed falls by half. Read a low half-life as fast loss. The term Cmax denotes the maximum level reached in the sampled fluid or tissue. For orientation: Tmax means the time at which the peak concentration occurs. Broadly, the bioavailability is dose-corrected exposure relative to a reference, in per cent. A lower bioavailability goes with little systemic uptake.

Values joined by “and” are separate entries in the source; they are usually repeats but may differ in a detail not shown here. Equal entries are not always repeated. “Also recorded” adds a separate entry of the source.

Data set [1] relates to HER2+ breast cancer cell lines. In words: CellTiter-Glo cell viability assay. The note with it: Homo sapiens; range over cell lines; read-out: IC50's in HER2+ breast cancer cell lines. It is filed as cell-based. How it is done:
(§1) The A431, HCC827, SK-BR-3, ZR-75–30, AU565, and Caco-2 cell lines were obtained from ATCC. The NCI-H1975 cell line was obtained from SIBS. The NCI-H3255 cell line was obtained from CoBioer. Engineered Ba/F3 cell lines were obtained from Crown Bioscience. MCKII-MDR1 cells were obtained from The Netherlands Cancer Institute. HEK293 cells were obtained from Invitrogen. A431 cells were cultured in DMEM (Life Technologies) with 10% FBS. HCC827, NCI-H1975, and AU565 cells were cultured in RPMI1640 (Invitrogen) with 10% FBS. NCI-H3255 cells were cultured in BEGM (Lonza) with 10% FBS. Ba/F3 EGFR-del E746_A750/C797S and Ba/F3 EGFR-L858R/C797S cells were cultured in RPMI (Invitrogen) with 10% FBS. SK-BR-3 cells were cultured in McCoy’s 5a (Invitrogen) with 10% FBS. ZR-75-30 cells were cultured in RPMI1640 (Invitrogen) with 20% FBS. Caco-2 and MCKII-MDR1 culture information is given in the Permeability Studies section. HEK293 cells were cultured in DMEM (Gibco) with 10% FBS, 0.1 mM NEAA, 25 mM HEPES, 100 U/mL penicillin-streptomycin, μg/mL blasticidin, and 400 μg/mL Geneticin. All cells were cultured in a humidified incubator with 5% CO2 at 37 °C.
(§2) Viability assays using A431, HCC827, NCI-H1975, NCI-H3255, Ba/F3 EGFR-del E746_A750/C797S, Ba/F3 EGFR-L858R/C797S, AU565, SK-BR-3, and ZR-75-30 cells were performed at Crown BioScience. Cells were plated into 96-well plates at 1500–7000 cells per well and dosed in triplicate (n = 3) in a nine-point, 4-fold dilution series with compounds (0.15 nM to 10 μM) in DMSO and incubated for 72 h. After 72 h, cell viability was assayed by CellTiter-Glo Luminescent Viability Assay (Promega). Dose–response curves were generated and used to calculate the IC50 values which were calculated on GraphPad Prism from the nonlinear regression equation fitted with a sigmoidal dose response and are presented as mean ± SEM.

Data set [2] relates to AU565 (HER2-positive breast cancer). The data set is described as follows: CellTiter-Glo cell viability assay. Format: cell-based, human. The note with it: Homo sapiens, AU565; 72 h, unadjusted for FBS. The method, then: as §1, §2
On the technique in general: In ATP-based viability assays light output follows the ATP content of the culture.

Data set [3] relates to A431 cell line (overexpressed EGFRwt). The data set is described as follows: CellTiter-Glo cell viability assay. Format: cell-based, human. The note with it: Homo sapiens, A-431; 72 h, unadjusted for FBS. How it is done:
as §1, §2

Data set [4] concerns ZR-75-30 (HER2-positive breast cancer). The data set is described as follows: CellTiter-Glo cell viability assay. It is filed as cell-based, human. As to conditions: Homo sapiens, ZR-75-30; 72 h, unadjusted for FBS. How it is done:
as §1, §2

In data set [5] the target is T1, CYP2D6 (Homo sapiens, UniProt P10635). The data set is described as follows: CYP450 inhibition in human liver microsomes. Format: in vitro ADME. More on the design: tissue BD Gentest 452117; host or cells: pooled human liver microsomes, mixed gender. (Liver microsomes are a subcellular fraction often used to study metabolism.)
T1 sequence (P10635 whole entry): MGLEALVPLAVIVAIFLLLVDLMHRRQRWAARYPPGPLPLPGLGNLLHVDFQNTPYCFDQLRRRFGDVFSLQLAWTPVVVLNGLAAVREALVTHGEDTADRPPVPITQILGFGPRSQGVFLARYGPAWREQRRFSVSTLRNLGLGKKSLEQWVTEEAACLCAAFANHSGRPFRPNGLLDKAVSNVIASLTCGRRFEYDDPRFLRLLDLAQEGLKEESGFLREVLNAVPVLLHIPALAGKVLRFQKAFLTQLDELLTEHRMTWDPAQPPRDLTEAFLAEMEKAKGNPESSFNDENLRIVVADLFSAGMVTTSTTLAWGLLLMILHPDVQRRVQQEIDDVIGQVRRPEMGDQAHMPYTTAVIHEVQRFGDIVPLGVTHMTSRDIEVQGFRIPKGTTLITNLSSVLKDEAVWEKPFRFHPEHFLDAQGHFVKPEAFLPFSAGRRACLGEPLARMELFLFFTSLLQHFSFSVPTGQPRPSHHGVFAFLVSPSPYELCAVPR
Method: The activities tested were CYP1A2-mediated phenacetin O-demethylation, CYP2C19-mediated (S)-mephenyotin 4′-hydroxylation, CYP2C9-mediated diclofenac 4′-hydroxylation, CYP2D6-mediated dextromethorphan O-demethylation, and CYP3A4-mediated midazolam 1′-hydroxylation. […] The reactions were initiated by adding NADPH (1 mM final concentration) after a 5 min preincubation, and the assay was run in duplicate (n = 2). Samples were analyzed by ultra-performance liquid chromatography tandem mass spectrometry (UPLC-MS/MS).
Data set [6] concerns the target T2, ABL1(Y253F)-phosphorylated (Homo sapiens, UniProt P00519, Y253F).
T2 construct: purchased Eurofins DiscoverX
In words: KINOMEScan. Format: binding. As to conditions: read-out: Percent Control.
From the text: (§3) Percent control was mapped onto the kinome tree using TREEspot.

The target in data set [7] is T3, BMPR1B (Homo sapiens, UniProt O00238).
T3 construct: purchased Eurofins DiscoverX (KINOMEscan)
T3 sequence (O00238 14-502): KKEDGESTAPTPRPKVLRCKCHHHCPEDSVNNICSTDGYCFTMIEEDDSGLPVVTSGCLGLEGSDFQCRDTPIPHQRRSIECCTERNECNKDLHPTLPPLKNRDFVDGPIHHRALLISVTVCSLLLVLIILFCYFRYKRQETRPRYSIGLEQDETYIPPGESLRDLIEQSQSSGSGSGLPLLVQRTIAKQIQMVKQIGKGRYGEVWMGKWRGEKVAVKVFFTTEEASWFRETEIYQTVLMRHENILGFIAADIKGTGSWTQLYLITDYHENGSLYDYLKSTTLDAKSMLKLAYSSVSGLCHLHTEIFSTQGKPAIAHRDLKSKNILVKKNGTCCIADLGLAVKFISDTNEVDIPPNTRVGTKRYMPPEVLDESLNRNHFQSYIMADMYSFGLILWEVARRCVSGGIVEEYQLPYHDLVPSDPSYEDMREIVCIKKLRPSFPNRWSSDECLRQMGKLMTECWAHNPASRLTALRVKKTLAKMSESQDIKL
The data set is described as follows: KINOMEScan. It is filed as binding. As to conditions: read-out: Percent Control.
From the text: as §3

In data set [8] the target is T4, WNK3 (Homo sapiens, UniProt Q9BYP7).
T4 construct: purchased Eurofins DiscoverX
T4 sequence (Q9BYP7 whole entry): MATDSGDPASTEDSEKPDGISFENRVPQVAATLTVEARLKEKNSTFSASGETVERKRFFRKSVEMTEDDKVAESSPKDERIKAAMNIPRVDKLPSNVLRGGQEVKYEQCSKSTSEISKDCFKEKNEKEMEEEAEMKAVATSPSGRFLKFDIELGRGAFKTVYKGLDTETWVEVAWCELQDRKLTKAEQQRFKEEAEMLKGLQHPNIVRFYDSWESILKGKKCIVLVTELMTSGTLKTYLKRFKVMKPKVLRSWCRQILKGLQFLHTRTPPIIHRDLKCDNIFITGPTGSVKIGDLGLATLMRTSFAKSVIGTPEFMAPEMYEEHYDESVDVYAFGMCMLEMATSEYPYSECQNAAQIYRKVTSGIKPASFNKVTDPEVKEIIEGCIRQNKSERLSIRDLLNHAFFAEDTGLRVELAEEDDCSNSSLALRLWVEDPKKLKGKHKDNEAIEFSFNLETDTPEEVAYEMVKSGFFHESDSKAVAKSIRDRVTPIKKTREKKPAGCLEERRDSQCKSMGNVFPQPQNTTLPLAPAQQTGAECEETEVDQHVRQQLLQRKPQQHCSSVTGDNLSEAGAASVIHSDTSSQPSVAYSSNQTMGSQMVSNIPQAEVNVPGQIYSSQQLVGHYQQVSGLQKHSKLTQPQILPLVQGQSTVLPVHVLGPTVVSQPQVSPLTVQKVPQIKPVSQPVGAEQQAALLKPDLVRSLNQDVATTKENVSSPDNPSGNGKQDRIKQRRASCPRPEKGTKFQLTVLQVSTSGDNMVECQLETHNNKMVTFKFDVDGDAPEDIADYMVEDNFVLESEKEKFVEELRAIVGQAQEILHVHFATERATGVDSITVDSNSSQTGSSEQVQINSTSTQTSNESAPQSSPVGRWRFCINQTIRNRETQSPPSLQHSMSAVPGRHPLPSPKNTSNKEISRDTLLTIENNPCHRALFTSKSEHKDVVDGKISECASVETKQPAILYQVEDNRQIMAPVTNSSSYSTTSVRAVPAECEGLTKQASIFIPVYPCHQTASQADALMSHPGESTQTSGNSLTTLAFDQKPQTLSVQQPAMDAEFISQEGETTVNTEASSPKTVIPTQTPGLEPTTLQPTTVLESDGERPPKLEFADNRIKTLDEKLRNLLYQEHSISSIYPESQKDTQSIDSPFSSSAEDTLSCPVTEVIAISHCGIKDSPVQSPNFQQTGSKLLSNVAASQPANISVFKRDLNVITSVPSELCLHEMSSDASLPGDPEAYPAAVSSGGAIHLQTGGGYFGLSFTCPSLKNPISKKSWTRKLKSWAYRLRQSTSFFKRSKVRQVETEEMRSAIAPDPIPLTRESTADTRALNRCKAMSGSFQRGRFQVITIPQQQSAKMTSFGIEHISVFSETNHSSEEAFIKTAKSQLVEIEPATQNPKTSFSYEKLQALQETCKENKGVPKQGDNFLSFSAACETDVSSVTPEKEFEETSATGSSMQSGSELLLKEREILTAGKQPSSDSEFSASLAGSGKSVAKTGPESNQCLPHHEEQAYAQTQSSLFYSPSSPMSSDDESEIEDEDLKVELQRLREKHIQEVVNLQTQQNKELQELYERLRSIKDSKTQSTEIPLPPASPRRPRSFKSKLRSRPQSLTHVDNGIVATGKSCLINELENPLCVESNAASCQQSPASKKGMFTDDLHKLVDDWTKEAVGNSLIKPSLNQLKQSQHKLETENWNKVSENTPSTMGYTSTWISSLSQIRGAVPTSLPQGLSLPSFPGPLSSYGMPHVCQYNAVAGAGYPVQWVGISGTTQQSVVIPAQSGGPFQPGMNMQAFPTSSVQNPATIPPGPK
In words: KINOMEScan. Format: binding. The note with it: WNK3, 1 µM; read-out: Percent Control.
From the text: as §3

A short description of data set [9]: Pharmacokinetic study. It is filed as in vivo, BALB/c nude mice. How it is done: Animal experiments were performed at Pharmaron, Inc. and animal use was approved by Pharmaron’s Institutional Animal Care and Use Committee (IACUC) in Pharmaron (Pharmaron IACUC, Protocol #PK-M-07182022, #PK-R-06012022, and #ON-CELL-XEN-06012022) following the guidance of AAALAC. Six- to eight-week-old male Sprague-Dawley rats (approximately 200–300 g) obtained from Si Bei Fu Laboratory Animal Technology Co., six- to eight-week-old male CD1 mice (approximately 20–30 g) obtained from Si Bei Fu Laboratory Animal Technology Co., and six- to eight-week-old female BALB/c nude mice (approximately 20–30 g) obtained from Si Bei Fu Laboratory Animal Technology Co., were used in the pharmacokinetic studies. Six- to eight-week-old female BALB/c nude mice (approximately 18–22 g) obtained from Beijing Anikeeper Biotech Co., Ltd. were used in the intracranial PDX study. Animals were housed at 20–25 °C with humidity ranging from 40 to 70% relative humidity, were exposed to 12 h light and dark cycles, and were supplied with food and water ab libitum.
Approximately 0.03 mL of blood was collected from the dorsal metatarsal vein (in the case of CD1 mice), 0.03 mL of blood from the orbit vein (in the case of BALB/c nude mice), or 0.2 mL of blood from the jugular vein (in the case of Sprague-Dawley rats) at each time point. Blood at each sampling point was transferred into a plastic micro centrifuge tube containing K2-EDTA, and collection tubes with blood samples and anticoagulant were inverted several times for proper mixing of the tube contents and placed on ice prior to centrifugation for plasma. Blood samples were centrifuged at 4 °C, 4000g for 5 min to obtain plasma. Samples were stored in a freezer at −75 °C prior to analysis. Concentrations of test articles in the plasma samples were determined using LC-MS/MS and WinNonlin 8.3 (Phoenix) was used for pharmacokinetic calculations. The values obtained were plotted on GraphPad Prism software and are presented as mean ± SD.

For data set [10], the target named is T1, CYP2D6. In words: CYP2D6 time-dependent inhibition in human liver microsomes. As to conditions: for Inhibition percentage(%) at Top conc. / IC50: liver microsomes; for IC50: read-out: CYP2D6 IC50.
In data set [11] the target is T5, BRSK1 (Homo sapiens, UniProt Q8TDC3).
T5 construct: purchased Eurofins DiscoverX (KINOMEscan)
T5 sequence (Q8TDC3 whole entry): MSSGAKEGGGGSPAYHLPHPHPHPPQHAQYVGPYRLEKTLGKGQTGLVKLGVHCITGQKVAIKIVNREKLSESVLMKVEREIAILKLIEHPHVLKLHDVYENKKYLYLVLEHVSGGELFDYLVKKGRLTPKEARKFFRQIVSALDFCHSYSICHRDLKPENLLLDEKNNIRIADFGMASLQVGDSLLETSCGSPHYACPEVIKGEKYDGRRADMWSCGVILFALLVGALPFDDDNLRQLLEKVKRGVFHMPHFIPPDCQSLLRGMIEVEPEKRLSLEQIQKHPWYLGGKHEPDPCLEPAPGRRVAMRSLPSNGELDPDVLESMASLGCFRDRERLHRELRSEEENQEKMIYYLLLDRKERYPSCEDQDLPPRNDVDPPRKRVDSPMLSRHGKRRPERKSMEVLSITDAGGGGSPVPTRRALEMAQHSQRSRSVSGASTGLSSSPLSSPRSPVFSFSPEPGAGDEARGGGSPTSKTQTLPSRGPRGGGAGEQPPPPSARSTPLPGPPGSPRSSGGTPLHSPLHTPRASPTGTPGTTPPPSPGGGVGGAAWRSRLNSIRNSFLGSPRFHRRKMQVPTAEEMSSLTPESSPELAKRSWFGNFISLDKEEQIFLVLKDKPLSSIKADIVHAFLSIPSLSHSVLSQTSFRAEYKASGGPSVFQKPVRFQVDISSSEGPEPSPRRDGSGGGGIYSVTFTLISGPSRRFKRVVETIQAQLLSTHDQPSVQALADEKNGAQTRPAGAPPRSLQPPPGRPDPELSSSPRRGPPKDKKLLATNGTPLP
In words: KINOMEScan. Format: binding. As to conditions: BRSK1, 1 µM; read-out: Percent Control.
From the text: as §3

The mark [12] stands for this setting: female, BALB/c nude, plasma, Mouse 3 mg/kg (IV).
The mark [13] stands for this setting: female, BALB/c nude, plasma, Mouse 30 mg/kg (PO).

Take `COc1cc2ncnc(Nc3cccc(Cl)c3F)c2cc1OCCON1CCN(C)CC1` [Compound 9, N-(3-Chloro-2-fluorophenyl)-7-methoxy-6-(2-((4-methylpiperazin-1-yl)oxy)ethoxy)quinazolin-4-amine]: the IC50 in [1] is 990 to 1600 nM; in [2] it was 986 ± 138 nM; in data set [3], 83 nM; in data set [4], 1630 nM; in [5] it was 1100 nM and 1110 nM; in [10] (30 min with NADPH), 1820 nM. The IC50 in data set [10] (30 min without NADPH) was found to be 1160 nM; in [10] (pre-incubation 0 min) it was 1050 nM. The remaining binding at 1 µM in [6] came out at 6.6%; in data set [7], 79%; in [8] it was 94%; in [11] it was 100%. Moreover, in data set [9] (30 mg/kg PO, BALB/c nude mice), the “plasma level at the 24 h time point” value is given as “no compound was detected”. Besides, the clearance in [9] (setting [12]) was 58.6 ± 8.7 mL/min/kg. Moreover, the half-life at 24 h in data set [9] (setting [12]) is 1.67 ± 0.12 h; in data set [9] (setting [13]) it was 1.84 ± 0.62 h. Moreover, the Vd at 24 h in data set [9] (female, BALB/c nude, plasma, Mouse 3 mg/kg (IV), read-out: Vss) was found to be 4.68 ± 0.54 L/kg. Further, the highest concentration (Cmax) at 24 h in data set [9] (setting [13]) is 2180 ± 66 nM. Also, the Tmax at 24 h in [9] (setting [13]) is 0.42 ± 0.14 h. This molecule showed a bioavailability at 24 h in data set [9] (setting [13]) of 61%. For the same molecule, in data set [10] (IC50-shift, human liver microsomes and primary human hepatocytes), the “CYP 2D6 TDI” value is “Negative; also recorded: not to be time-dependent”. Further, the “Inhibition percentage(%) at Top conc.” value in data set [10] (0 min) was found to be 78.15%; in data set [10] (30 min with NADPH), 74.73%; in data set [10] (30 min without NADPH), 78.78%.

These data come from paper PMC10683025, “Discovery of a Hydroxylamine-Based Brain-Penetrant EGFR Inhibitor for Metastatic Non-Small-Cell Lung Cancer” (Journal of Medicinal Chemistry, 2023).
